For orientation: IC50 means the point on the concentration scale where inhibition reaches its midpoint.

In the experiment the target is T1, wild-type HIV-1 protease (Human immunodeficiency virus type 1 group M subtype B, UniProt P04585).
T1 construct: Escherichia coli expressed wild-type HIV-1 protease protein
The experiment in a line: Assay for Inhibition of Microbial Expressed HIV Protease (peptide substrate cleavage, LC-MS/MS readout). The note with it: E. coli expressed wild-type HIV-1 protease, mean of at least two independent experiments, read-out: HIV Pr Enzyme HIV1 PR IC50. It counts as biochemical. The method in brief: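 Cleavage of Val-Ser-Gln-Asn-(β-naphthyl)Ala-Pro-Ile-Val (400 μM) by recombinant HIV-1 protease ([…]) ran 1 h at 30 °C after a 30 min room-temperature inhibitor preincubation in 50 mM sodium acetate pH 5.5. Product peak areas by LC-MS/MS gave inhibition; values average at least two independent runs.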

Regarding `CC(C)CC[C@]1(c2ccc(F)cc2)NC(=N)N(C(Cc2ccccc2)c2ccc(C(F)(F)F)c(C(=O)N3CCn4c(nnc4C(F)(F)F)C3)c2)C1=O` (stereo partly drawn) [Compound 54, (5R)-5-(4-fluorophenyl)-2-imino-5-(3-methylbutyl)-3-{2-phenyl-1-[4-(trifluoromethyl)-3-{[3-(trifluoromethyl)-5,6-dihydro-[1,2,4]triazolo[4,3-a]pyrazin-7(8H)-yl]carbonyl}phenyl]ethyl} imidazolidin-4-one], the IC50 worked out at 5.65 nM.
On to `N=C1N[C@](CCCC(F)(F)F)(c2ccc(F)cc2)C(=O)N1Cc1ccc(C(F)(F)F)c(C(=O)N2Cc3cnc(-c4ccc5cnccc5c4)nc3C2)c1` [Compound 55, (5R)-5-(4-fluorophenyl)-2-imino-3-{3-[(2-isoquinolin-6-yl-5,7-dihydro-6H-pyrrolo[3,4-d]pyrimidin-6-yl)carbonyl]-4-(trifluoromethyl)-benzyl}-5-(4,4,4-trifluorobutyl)-imidazolidin-4-one], for which the 50% inhibitory concentration (IC50) was 5.99 nM.
The value for `CC(C)CC[C@]1(c2ccc(F)cc2)NC(=N)N(C(CCCc2ccccc2)c2ccc(C(F)(F)F)c(C(=O)N3CCn4c(nnc4C(F)(F)F)C3)c2)C1=O` (stereo partly drawn) [Compound 56, (5R)-5-(4-fluorophenyl)-2-imino-5-(3-methylbutyl)-3-{4-phenyl-1-[4-(trifluoromethyl)-3-{[3-(trifluoromethyl)-5,6-dihydro[1,2,4]-triazolo[4,3-a]pyrazin-7(8H)-yl]carbonyl}-phenyl]butyl}imidazolidin-4-one] was 6.19 nM.
As for `N=C1N[C@](CCCC(F)(F)F)(c2ccc(F)cc2)C(=O)N1Cc1ccc(C(F)(F)F)c(C(=O)N2Cc3cnc(N)nc3C2)c1` [Compound 57, (5R)-3-{3-[(2-amino-5,7-dihydro-6H-pyrrolo[3,4-d]pyrimidin-6-yl)carbonyl]-4-(trifluoromethyl)-benzyl}-5-(4-fluorophenyl)-2-imino-5-(4,4,4-trifluorobutyl)-imidazolidin-4-one], the IC50 was found to be 6.24 nM.
With `N#Cc1ncc2c(n1)CN(C(=O)c1cc(CN3C(=N)N[C@](CCCC(F)(F)F)(c4ccc(F)cc4)C3=O)ccc1C(F)(F)F)C2` [Compound 58, 6-{[5-{[(4R)-4-(4-fluorophenyl)-2-imino-5-oxo-4-(4,4,4-trifluorobutyl)imidazolidin-1-yl]methyl}-2-(trifluoromethyl)-phenyl]carbonyl}-6,7-dihydro-5H-pyrrolo[3,4-d] pyrimidine-2-carbonitrile], the half-maximal inhibitory concentration (IC50) came out at 6.43 nM.
Under `CC(=O)c1cccc(-c2ncc3c(n2)CN(C(=O)c2cc(CN4C(=N)N[C@](CCCC(F)(F)F)(c5ccc(F)cc5)C4=O)ccc2C(F)(F)F)C3)c1` [Compound 59, (5R)-3-[3-{[2-(3-acetylphenyl)-5,7-dihydro-6H-pyrrolo[3,4-d]pyrimidin-6-yl]carbonyl}-4-(trifluoromethyl)benzyl]-5-(4-fluorophenyl)-2-imino-5-(4,4,4-trifluorobutyl)imidazolidin-4-one] stands 6.45 nM; under `Cc1nocc1-c1ncc2c(n1)CN(C(=O)c1cc(CN3C(=N)N[C@](CCCC(F)(F)F)(c4ccc(F)cc4)C3=O)ccc1C(F)(F)F)C2` [Compound 60, (5R)-5-(4-fluorophenyl)-2-imino-3-[3-{[2-(3-methylisoxazol-4-yl)-5,7-dihydro-6H-pyrrolo[3,4-d]pyrimidin-6-yl]carbonyl}-4-(trifluoromethyl)benzyl]-5-(4,4,4-trifluorobutyl)imidazolidin-4-one], 6.55 nM.
Under `N#CCc1ccc(-c2ncc3c(n2)CN(C(=O)c2cc(CN4C(=N)N[C@](CCCC(F)(F)F)(c5ccc(F)cc5)C4=O)ccc2C(F)(F)F)C3)cn1` [Compound 61, [5-(6-{[5-{[(4R)-4-(4-fluorophenyl)-2-imino-5-oxo-4-(4,4,4-trifluorobutyl)imidazolidin-1-yl]methyl}-2-(trifluoromethyl)-phenyl]carbonyl}-6,7-dihydro-5H-pyrrolo[3,4-d]pyrimidin-2-yl)pyridin-2-yl]acetonitrile] stands 6.6 nM.
